Reference: patent US12398110B2, “Second generation inhibitors of mitochondrial permeability transition pore with improved plasma stability” (Oregon Health & Science University, priority 2019, dated 2025)
Read-outs that look alike come from different tables or passages of the source.

Experiments:
Assay type in all cases: biochemical
mtPTP [1] = test: Ca2+ retention capacity (CRC) of isolated mouse liver mitochondria
Method: CRC determines the Ca^2+ threshold required for mtPTP activation; inhibitors of mtPTP are expected to increase the Ca^2+ threshold required for mtPTP induction. Extramitochondrial Ca^2+ changes are detected using the membrane-impermeant Ca^2+ indicator, Calcium Green-5N.
(§1) Isolation of mitochondria. C57BL6/N mouse liver mitochondria were prepared from 2 to 6 month old male mice by standard differential centrifugation. Mice fed ad libitum were euthanized with CO2 followed cervical dislocation, their livers were existed and placed in a glass beaker containing ice-cold isolation buffer (IB: 0.25 m sucrose, 10 mm Tris-HCl, 0.1 mm EGTA-Tris, pH 7.4) supplemented with fatty acid free bovine serum albumin. Livers were then cut into small pieces with scissors, rinsed with ice-cold IB, and passed through a pre-chilled Potter homogenizer with Teflon pestle. The homogenate (˜30 mL per liver) was transferred to centrifuge tubes, and unbroken cells and nuclei were removed by centrifugation at 700 g for 10 min at 4° C. The supernatant containing mitochondria and other organelles was transferred to new tubes and centrifuged at 6000 g for 10 min at 4° C. The resulting supernatant was discarded and mitochondrial pellet was carefully suspended in ice-cold IB and spun at 9500 g for 5 min at 4° C. The pellet was suspended in IB to give a protein concentration of ˜60-80 mg/mL and stored on ice. Experiments were started immediately and completed within 5 h. Protein concentration was determined by the Biuret method.
Assessment of Ca^2+ retention capacity (CRC). CRC of isolated mouse liver mitochondria was assessed as follows: First, 0.1 mL of SAB were dispensed to a 96-well black assay plate in the presence of 2% DMSO (control wells) or varying concentrations of test compounds, in 1:2 serial dilutions. Then, 0.1 mL of 0.5 mg/mL mitochondria in SAB devoid of respiratory substrates, but supplemented with 1 μm Calcium Green-5N were added to all wells of the assay plate. A train of 10 μm CaCl2 pulses was added at 2 min intervals, and fluorescence intensity (ex/em 485/535 nm) was read on Tecan Infinite F200 plate reader.

mtPTP [2] = test: Ca2+ overload induced mitochondrial swelling in isolated mouse liver mitochondria; conditions: for mtPTP inhibitory activity (in words): SAR discussion of Table 2
Method: We next sought to evaluate the effects of TR001-13 on mtPTP activity in vitro. This was performed on isolated mitochondria. In isolated mitochondria induction of mtPTP opening leads to mitochondrial swelling due to the oncotic pressure gradient created by matrix proteins >1.5 kDa that cannot diffuse through the open pore. In in vitro experiments, where isolated mitochondria are routinely suspended in sucrose-based isosmotic solutions, the change in mitochondrial size can be measured spectrometrically by detecting the decrease in light scattering at 540 nm.
as §1
Assessment of mitochondrial swelling. Changes in mitochondrial volume of isolated mouse liver mitochondria were followed in a 96-well clear assay plate at a final volume of 0.2 mL and 0.25 mg/mL mitochondrial protein. Absorbance was read for 30 min at 540 nm on a Tecan Infinite F200 plate reader. Activity of test compounds was addressed as follows: First, 0.1 mL of sucrose assay buffer (SAB: 0.250 m sucrose, 10 mm MOPS-Tris, 0.01 mm EGTA-Tris, 1.0 mm phosphoric acid-Tris, 10 mm glutamate and 5 mm malate, pH 7.4) supplemented with twice the CaCl2 concentration required to induce mitochondrial swelling (which was determined for each preparation of mitochondria, typically 50 μm) was dispensed to the assay plate. A set of wells also contained 2.0 mm EGTA (to prevent mitochondrial swelling). The test wells contained a range of concentrations (in 1:2 serial dilutions) of the compounds of interest or 2% DMSO. Experiments were started by the addition of 0.1 mL of mitochondrial suspension (0.5 mg/mL mitochondria in SAB without respiratory substrates) to the assay plates. EC50s±SE were determined with OriginPro software by applying Hill1 function fitting algorithm on average concentration response data of n=3-41 independent preparations.

[3] = system: inner mitochondrial membrane potential; test: Rhodamine 123 (Rh123) uptake, mitochondrial membrane potential of isolated mouse liver mitochondria
Source text: We next evaluated the mitochondrial toxicity of the new triazole analogs by testing their ability to interfere with accumulation of the membrane-permeant cationic fluorescent dye rhodamine 123 (Rh123). The mitochondrial uptake of positively charged Rh123 is driven by the inside negative IMM potential, which is built by the respiratory chain or maintained by ATP hydrolysis if certain conditions are met. […] It should be noted, however, that toxicity for these compounds only occurs at ˜10-1000-fold higher concentrations compared to mtPTP inhibition, providing a good therapeutic window.
Assessment of mitochondrial membrane potential. Mitochondrial membrane potential—to evaluate toxicity—of isolated mouse liver mitochondria was assessed based on fluorescence quenching of the cationic fluorescent dye Rh123 upon its accumulation into mitochondrial matrix due to inside negative membrane potential. Compounds that interfere with the build-up or maintenance of IMM potential would shift Rh123 fluorescence to higher values compared to DMSO treated samples. Uncoupler FCCP was used to account for nonspecific fluorescence. First, 0.1 mL of SAB was dispensed to a 96-well black assay plate. A set of wells also contained 0.8 μm FCCP (to prevent Rh123 uptake). The test wells contained a range of concentrations (in 1:2 serial dilutions) of the compounds of interest or 2% DMSO. Then, 0.1 mL of 0.5 mg/mL mitochondria in SAB devoid of respiratory substrates but supplemented with 0.8 μm Rh123 were added to all wells of the assay plate. Fluorescence intensity (ex/em 485/535 nm) was read on a Tecan Infinite F200 plate reader for 7 min and value at 5 min was considered for analysis. EC50s±SE were determined with OriginPro software by applying Hill1 function fitting algorithm on average concentration response data of n=3 independent preparations.

[4] = Mouse Liver Mitochondria (MLM), comparative examples
[5] = Mouse Liver Mitochondria (MLM), comparative examples, read-out: Swelling EC50
[6] = Mouse Liver Mitochondria (MLM), comparative examples, read-out: Rh123 EC50
[7] = interference with Rh123 uptake to mitochondria, average ± SEM, n = 3, read-out: Rh123 uptake EC50
[8] = compound treated CRC to DMSO treated CRC0 ratio, 1.25 μM, average ± SEM, n = 3-25
[9] = isolated mouse liver mitochondria, average ± SEM, n = 3-41, read-out: Mitochondrial Swelling EC50

EC50 (mtPTP [2]; [5])	EC50 [3, 6]	SMILES	CRC/CRC0 at 1.25 μM (mtPTP [1]; [4])	further results
> 20 µM	–	Cc1ccc(Cl)cc1NC(=O)c1cn(-c2ccc3[nH]c(=O)[nH]c3c2)nn1	1	–
> 20 µM	–	CC(=O)Nc1cc(-n2cc(C(=O)Nc3cc(Cl)ccc3C)nn2)ccc1F	1	–
> 20 µM	–	Cc1ccc(Cl)cc1NC(=O)c1cn(-c2ccc(F)c(NC(=O)C(F)(F)F)c2)nn1	1	–
0.083 µM	> 40 µM	CC(=O)Oc1cc(-n2cc(C(=O)Nc3cc(Cl)ccc3C)nn2)ccc1F	4.5	–
0.581 µM	> 40 µM	CCOC(=O)Oc1cc(-n2cc(C(=O)Nc3cc(Cl)ccc3C)nn2)ccc1F	1.8	–
8.7 µM	> 40 µM	CCCOc1ccc(Cl)cc1NC(=O)c1cn(-c2ccc(F)c(O)c2)nn1	1.8	–
0.028 µM	14.7 µM	Cc1ccc(I)cc1NC(=O)c1cn(-c2ccc(F)c(O)c2)nn1	8.3	–
> 20 µM	–	Cc1ccc(Cl)cc1NC(=O)c1cn(-c2ccc(Br)c(NS(C)(=O)=O)c2)nn1	1	–
> 20 µM	–	Cc1ccc(Cl)cc1NC(=O)c1cn(-c2cccc(C(=O)O)c2)nn1	1	–
> 20 µM	–	Cc1ccc(Cl)cc1NC(=O)c1cn(-c2ccc(F)c(N)c2)nn1	1	–
> 20 µM	–	Cc1ccc(Cl)cc1NC(=O)c1cn(-c2ccc(F)c(NS(=O)(=O)C(F)(F)F)c2)nn1	1	–
0.513 µM	> 40 µM	C#Cc1ccc(Cl)cc1NC(=O)c1cn(-c2ccc(F)c(O)c2)nn1	3.7	–
> 20 µM	–	C#Cc1ccc(C(C)=O)cc1NC(=O)c1cn(-c2ccc(F)c(O)c2)nn1	–	–
0.0051 µM	> 40 µM	Cc1c(Cl)cccc1NC(=O)c1cn(-c2ccc(F)c(O)c2)nn1	5.4	–
0.578 µM	> 40 µM	Cc1ccc(N=[N+]=[N-])cc1NC(=O)c1cn(-c2ccc(F)c(O)c2)nn1	2.4	–
7 µM	> 40 µM	C#Cc1ccc(C)c(NC(=O)c2cn(-c3ccc(F)c(O)c3)nn2)c1	1.3	–
5.2 µM	> 40 µM	CC(=O)c1ccc(C)c(NC(=O)c2cn(-c3ccc(F)c(O)c3)nn2)c1	1.4	–
–	–	Cc1ccc(Cl)cc1NC(=O)c1cn(-c2cc(O)cc(F)c2)nn1 [TR002, N-(5-chloro-2-methylphenyl)-1-(3-fluoro-5-hydroxyphenyl)-1H-1,2,3-triazole-4-carboxamide]	–	EC50 [3, 7]: 14.1 ± 1.2 µM; CRC/CRC0 at 1.25 μM (mtPTP [1]; [8]): 12.6 ± 0.6; mtPTP inhibitory activity (in words) (mtPTP [2]): most potent analog; EC50 (mtPTP [2]; [9]): 0.01 ± 0.002 µM
–	–	Cc1ccc(Cl)cc1NC(=O)c1cn(-c2cccc(O)c2F)nn1 [TR003, N-(5-chloro-2-methylphenyl)-1-(2-fluoro-3-hydroxyphenyl)-1H-1,2,3-triazole-4-carboxamide]	–	EC50 [3, 7]: 29.3 ± 3.3 µM; CRC/CRC0 at 1.25 μM (mtPTP [1]; [8]): 7.4 ± 0.5; EC50 (mtPTP [2]; [9]): 0.152 ± 0.036 µM; fold decrease in activity compared to TR001 (mtPTP [2]; mitochondrial swelling, vs TR001): 5 fold
–	–	Cc1ccc(Cl)cc1NC(=O)c1cn(-c2cc(O)ccc2F)nn1 [TR004, N-(5-chloro-2-methylphenyl)-1-(2-fluoro-5-hydroxyphenyl)-1H-1,2,3-triazole-4-carboxamide]	–	EC50 [3, 7]: > 40 µM; CRC/CRC0 at 1.25 μM (mtPTP [1]; [8]): 1.3 ± 0.03; mtPTP inhibitory activity (in words) (mtPTP [2]): inactive; EC50 (mtPTP [2]; [9]): > 20 µM
–	–	Cc1ccc(Cl)cc1NC(=O)c1cn(-c2ccc(F)c(O)c2F)nn1 [TR005]	–	EC50 [3, 7]: > 40 µM; CRC/CRC0 at 1.25 μM (mtPTP [1]; [8]): 2.6 ± 0.2; mtPTP inhibitory activity (in words) (mtPTP [2]): decreased activity; EC50 (mtPTP [2]; [9]): 0.782 ± 0.114 µM

SMILES	EC50 (mtPTP [2]; [5])	EC50 [3, 6]	CRC/CRC0 at 1.25 μM (mtPTP [1]; [4])	further results
Cc1ccc(Cl)cc1NC(=O)c1cn(-c2ccc(F)c(OC(=O)N(C)C)c2)nn1	0.153 µM	–	3.9	–
Cc1ccc(Cl)cc1NC(=O)c1cn(-c2cc(F)cc(OC(=O)N(C)C)c2)nn1	> 20 µM	–	1.5	–
